# Experiments:
# [1] = tested on: PopD-D7 M-833 resistant clone (PfSTART1 N309K); experiment: Growth inhibition assay (72 h, LDH activity); assay type: cell-based, Plasmodium falciparum; conditions: for (av-uRBC) / (DMSO-uRBC) x100: PopD-D7
# Experimental: The drug was then removed, and parasites were allowed to recover. Another cycle of drug treatment (3 μM M-833) was then resumed. The resistant lines were cloned out by limiting dilution (diluting the culture into a 96-well plate to achieve an average of ~0.3 parasites per well), prior to growth inhibition assays and genomic DNA (gDNA) extraction (DNeasy Blood and Tissue kit (Qiagen)[18].
# Parasite growth assays with inhibitory compounds were performed as per[11] and are fully described in the Supplementary Information. […]
# Growth inhibition assays. Synchronised ring-stage parasites (0.3-0.6% parasitemia, 2% haematocrit) were grown for 72 h in a serial-dilution of the compound under […]
# and compound 4. Note that M-833 was first purchased from MolPort (MolPort -002-267-916) then made in-house at WEHI: the differences observed in EC50s across experiments are attributed to the different batches of M -833. For some experiments, 0, 0.25 or 2.5 mM of glucosamine (GlcN) was also added. Experiments were set up in technical duplicates or triplicates. Following a freeze -thaw cycle, lactate dehydrogenase (LDH) activity was assessed as an indicator of parasite growt h 5. 30 μL of parasite culture was incubated for 30 min in the dark with 75 μL Malstat mixture (0.1 M Tris pH 9.0, 20 g/L lactic acid, pH 7.5, 0.2% Triton-X100, 0.5 g/L acetylpyridine adenine dinucleotide (APAD, Sigma), 200 μg/mL nitroblue tetrazolium (NBT; Sigma), 1 μg/mL phenozine ethosulfate (PES; Sigma)). Absorbance was then measured at 650 nm, transformed using the formula below, plotted against the logarithm of the concentrations, and a non-linear regression (log(inhibitor) vs. response, variable slope) was calculated using GraphPad Prism to assess the half-inhibitory […]
# Growth inhibition % = (1 − average(sample)− average(uRBC)) ∗ 100 […]
# The DMSO samples were also used to assess growth of parasite in the presence of 0.25 and 2.5 mM GlcN (normalised by DMSO in 0 mM GlcN). […]
# in vitro = conditions: human
smiles,measurement,setting,value
"O=C(CNc1ccc(Cl)c(S(=O)(=O)N2CCOCC2)c1)Nc1ccc(F)c(Cl)c1 [compound 2, reference compound]",EC50,"[1]; Plasmodium falciparum, Supplementary Table 1, PopD-D7 (N309K), 72 h, read-out: EC50",> 20 µM
same,resistance of the line compared with 3D7,"[1]; PopD-D7 (N309K), Fig 4B",highly resistant
same,(av-uRBC) / (DMSO-uRBC) x100,"[1]; conc. 3.04832 nM, Biological replicate 1 (2021-10-25)",108.297
same,(av-uRBC) / (DMSO-uRBC) x100,"[1]; conc. 3.04832 nM, Biological replicate 2 (2021-11-03)",110.746
same,(av-uRBC) / (DMSO-uRBC) x100,"[1]; conc. 3.04832 nM, Biological replicate 3 (2021-11-11)",101.173
same,(av-uRBC) / (DMSO-uRBC) x100,"[1]; conc. 9.14495 nM, Biological replicate 1 (2021-10-25)",111.853
same,(av-uRBC) / (DMSO-uRBC) x100,"[1]; conc. 9.14495 nM, Biological replicate 2 (2021-11-03)",111.153
same,(av-uRBC) / (DMSO-uRBC) x100,"[1]; conc. 9.14495 nM, Biological replicate 3 (2021-11-11)",114.836
same,(av-uRBC) / (DMSO-uRBC) x100,"[1]; conc. 27.4348 nM, Biological replicate 1 (2021-10-25)",111.176
same,(av-uRBC) / (DMSO-uRBC) x100,"[1]; conc. 27.4348 nM, Biological replicate 2 (2021-11-03)",111.76
same,(av-uRBC) / (DMSO-uRBC) x100,"[1]; conc. 27.4348 nM, Biological replicate 3 (2021-11-11)",128.575
same,(av-uRBC) / (DMSO-uRBC) x100,"[1]; conc. 82.3045 nM, Biological replicate 1 (2021-10-25)",109.097
same,(av-uRBC) / (DMSO-uRBC) x100,"[1]; conc. 82.3045 nM, Biological replicate 2 (2021-11-03)",114.254
same,(av-uRBC) / (DMSO-uRBC) x100,"[1]; conc. 82.3045 nM, Biological replicate 3 (2021-11-11)",124.242
same,(av-uRBC) / (DMSO-uRBC) x100,"[1]; conc. 246.914 nM, Biological replicate 1 (2021-10-25)",110.536
same,(av-uRBC) / (DMSO-uRBC) x100,"[1]; conc. 246.914 nM, Biological replicate 2 (2021-11-03)",113.933
same,(av-uRBC) / (DMSO-uRBC) x100,"[1]; conc. 246.914 nM, Biological replicate 3 (2021-11-11)",129.518
same,(av-uRBC) / (DMSO-uRBC) x100,"[1]; conc. 740.741 nM, Biological replicate 1 (2021-10-25)",106.002
same,(av-uRBC) / (DMSO-uRBC) x100,"[1]; conc. 740.741 nM, Biological replicate 2 (2021-11-03)",112.781
same,(av-uRBC) / (DMSO-uRBC) x100,"[1]; conc. 740.741 nM, Biological replicate 3 (2021-11-11)",117.002
same,(av-uRBC) / (DMSO-uRBC) x100,"[1]; conc. 2222.22 nM, Biological replicate 1 (2021-10-25)",103.716
same,(av-uRBC) / (DMSO-uRBC) x100,"[1]; conc. 2222.22 nM, Biological replicate 2 (2021-11-03)",111.361
same,(av-uRBC) / (DMSO-uRBC) x100,"[1]; conc. 2222.22 nM, Biological replicate 3 (2021-11-11)",123.604
same,(av-uRBC) / (DMSO-uRBC) x100,"[1]; conc. 6666.67 nM, Biological replicate 1 (2021-10-25)",102.822
same,(av-uRBC) / (DMSO-uRBC) x100,"[1]; conc. 6666.67 nM, Biological replicate 2 (2021-11-03)",107.742
same,(av-uRBC) / (DMSO-uRBC) x100,"[1]; conc. 6666.67 nM, Biological replicate 3 (2021-11-11)",113.943
same,(av-uRBC) / (DMSO-uRBC) x100,"[1]; conc. 20000 nM, Biological replicate 1 (2021-10-25)",68.9276
same,(av-uRBC) / (DMSO-uRBC) x100,"[1]; conc. 20000 nM, Biological replicate 2 (2021-11-03)",85.5559
same,(av-uRBC) / (DMSO-uRBC) x100,"[1]; conc. 20000 nM, Biological replicate 3 (2021-11-11)",59.2149
same,Fold change compared to 3D7,"[1]; Supplementary Table 1, EC50 on PopD-D7 vs 3D7",> 117 fold
same,CC50,in vitro,> 40 µM

# Source: PMC11189555, “Aryl amino acetamides prevent Plasmodium falciparum ring development via targeting the lipid-transfer protein PfSTART1” (Nature Communications, 2024)
